Test system: JeKo-1 cells
Assay: Cell viability, Annexin V/PI assay (also IC50 and combination index)
Assay type: cell-based
Description: To assess apoptosis and cellular proliferation, all cell lines were treated with CRM 1 inhibitors (concentration ranging from 0.05-2 μM) and salicylates at concentrations ranging from (0.001-10 mM) for 48 hours before analysis was performed. DMSO was used to substitute the drug in controls.
After 48 hours incubation, cells were washed with Annexin buffer solution and stained with both propidium iodide (PI) and FITC-Annexin V (Life Technologies), and assayed on a BD Accuri flow cytometer (BD Biosciences). Apoptosis results were analyzed with BD CellQuest software. For cell cycle analysis, Jeko-1 cell line was intubated with CRM 1 inhibitors (concentrations ranging from […]) and salicylates (concentration at 3 mM) and Ly-1 cell line was intubated with CRM 1 inhibitors (concentrations ranging from 0.1-2.0 μM) and salicylates (concentration at 0.5-5 mM) for 24 and 48 hours and then fixed with 95% cold ethanol and kept at 4 C° for 24 h and subsequently underwent cell cycle analysis after PI staining and analysis was performed using BD FACS caliber flow cytometer (BD Biosciences) and FlowJo software (Tree Star).
Cell lines were purchased from the cell line repositories ATCC (Manassas, Va.) or DSMZ (Braunschweig, Germany). These included MCL cell lines: JeKo-1, Mino; TCL cell lines: Karpas-299, SR-786; DLBCL cell lines: OCI-Ly1 (LY-1), OCI-Ly3 (LY-3), OCI-Ly19 (LY-19), SU-DHL-6 (DHL-6); MM cell lines: RPMI, U266, OPM2, Xgl, KMS2; ALL cell lines: CRL-1783; non-small cell lung cancer: NCI-H460, A549, HCC827; small cell lung cancer: H1048; sarcoma: Fuji, SW872. Cell lines were cultured according to instruction.
KPT-330 purchased from Selleckchem (cat no: S7252) was dissolved in DMSO while CS (Santa Cruz, Calif.S 2016-36-6), sodium salicylate (Sigma-Aldrich, cat no: S3007), acetyl salicylate (Sigma-Aldrich, cat no: CAS 50-78-2) was diluted in PBS. Ketorolac (Sigma-Aldrich, cat no: 1356665), Bortezomib (Selleckchem, cat no: S1013), gemcitabine (Sigma-Aldrich, cat no: G6423), Leptomycin-B (Sigma-Aldrich, cat no: L2913-2X) and KPT-185 (Selleckchem, cat no: S7125) were dissolved in DMSO. The concentration range of KPT-330 was 0.05-1.0 μM while CS was 1-3 mM were used for ex vivo treatment and incubation time ranged from 24 hours to 72 hours. For the PARP inhibitor assay, olaparib 10 μM (SelleckChem, cat no: AZD2281 Ku-0059436) was used.
The viability assessment for cell lines and primary patients samples were conducted with the Annexin V/PI method.
Jeko-1 and OCI-Ly1 cell lines were used to assess the IC50. Keeping CS at 3 mM, KPT-330 was titrated. Relative IC50 was calculated as described elsewhere (see, e.g., Sebaugh et al., Pharmaceutical statistics 10:128-134 (2011)). The combination index was calculated as described elsewhere (see, e.g., Chou et al., Cancer Res 70:440-446 (2010)).

## O=C(c1cc(Cc2n[nH]c(=O)c3ccccc23)ccc1F)N1CCN(C(=O)C2CC2)CC1 [Olaparib, olaparib]
JeKo-1, olaparib 10 μM, KPT-330 0.5 μM, CS 3 mM, 48 h, AnnexinV/PI
  antitumor activity with PARP inhibitor: did not have any antitumor activity

## CC(C)[C@H](NC(=O)c1ccc2ccccc2n1)C(=O)N[C@@H](CC(=O)O)C(=O)COc1c(F)cccc1F [Q-VD-OPh]
JeKo-1, 48 hours, KPT-330 0.5 μM and CS 3 mM
  effect of pan-caspase inhibitor on K+CS induced cell death: rescued cells from K+CS induced cell death

## Cc1cn([C@H]2C[C@H](O)[C@@H](CO)O2)c(=O)[nH]c1=O [thymidine]
JeKo-1 in thymidine-free media, 0.5 μM KPT-330, 3 mM CS, 10 μM thymidine, 48 hours
  cell viability after K+CS treatment with exogenous thymidine: statistically significant increase in cell viability
